Data published in ChEMBL document CHEMBL1275465, “Plasmid-mediated QnrS2 determinant from a clinical Aeromonas veronii isolate” (2008).
Converted amounts (≈) assume the structure as drawn.

Tests used:
Format in all cases: functional
Escherichia coli [1] = assay: Antimicrobial activity against Escherichia coli J53 harboring QnrS2 and GyrA Ile83 and ParC Ile80 mutant gene by Etest
Escherichia coli [2] = assay: Antimicrobial activity against Escherichia coli J53 by Etest
Aeromonas veronii [3] = assay: Antimicrobial activity against QnrS2-negative Aeromonas veronii CECT 4260 harboring GyrA Ser83 and ParC Ser80 mutant gene by Etest
Aeromonas veronii [4] = assay: Antimicrobial activity against QnrS2-negative Aeromonas veronii CECT 4258 harboring GyrA Ser83 and ParC Ser80 mutant gene by Etest
Aeromonas veronii [5] = assay: Antimicrobial activity against QnrS2-positive Aeromonas veronii A272 harboring GyrA Ile83 and ParC Ile80 mutant gene by Etest

SMILES	MIC (Escherichia coli [1]) [µg/mL]	MIC (Escherichia coli [2]) [µg/mL]	MIC (Aeromonas veronii [3]) [µg/mL]	MIC (Aeromonas veronii [4]) [µg/mL]	MIC (Aeromonas veronii [5]) [µg/mL]
CCn1cc(C(=O)O)c(=O)c2ccc(C)nc21 [NALIDIXIC ACID]	> 256	4 (≈ 17.2 µM)	< 0.25	< 0.25	> 256
O=C(O)c1cn(C2CC2)c2cc(N3CCNCC3)c(F)cc2c1=O [CIPROFLOXACIN]	–	0.023 (≈ 0.0694 µM)	< 0.02	< 0.02	8 (≈ 24.1 µM)
CCn1cc(C(=O)O)c(=O)c2cc(F)c(N3CCNCC3)cc21 [NORFLOXACIN]	2 (≈ 6.26 µM)	0.19 (≈ 0.595 µM)	< 0.02	< 0.02	12 (≈ 37.6 µM)
